# In patent US12365643B2, “Phenoxy carboxylic acid compounds and medical uses thereof” (QINGDAO RISING BIOTECHNOLOGY CO., LTD, priority 2018, dated 2025):
# Assays:
# PGC1α = PGC1α mRNA expression by real-time quantitative PCR in HepG2; format: cell-based, human; conditions: 1 μM, 6 hours, HepG2 (FIG. 5C)
# From the text: (§1) Peroxisome proliferation factor activated receptor (PPAR) is an important nuclear receptor that regulates glycolipid metabolism, including three subtypes: α, β/δ and γ. Peroxisome proliferator-activated receptor γ coactivator 1α (PGC-1α) is its auxiliary transcriptional activator. Acyl-CoA oxidase 1 (ACOX1) is the first rate-limiting enzyme for fatty acid β oxidation. Fatty acid binding protein 1 (FABP1) is highly expressed in liver, and can bind fatty acid, heme and other molecules to reduce their toxicity and damage. Up-regulating the expression level of these genes helps to improve the body's metabolism, and their agonists are an important class of anti-metabolic drugs. After the compound of the present application (1 μM) and the control drug gemfibrozil (1 μM) were incubated with human liver cancer cells HepG2 for 6 hours, real-time fluorescent quantitative PCR method was used to determine the relative expression of mRNA of related genes in the cells.
# (§2) The company which synthesized the primers was Suzhou Hongxun Biotechnology Co., Ltd. Tranzol reagent (Tranzol total RNA extraction reagent, TransGen Biotech) was used to extract total RNA from tissues. 5× All-In-One RT MasterMix reverse transcription kit (Abcam, USA) and real-time quantitative PCR Master Mix (Aidlab Biotechnologies Co., Ltd) were used. Bio-Rad CFX Connect™ Real-Time PCR Detection System for qPCR was used, and 2^−ΔΔCT method was used for data analysis. The expression level of mRNA in the normal control group was set to 1, and the relative expression level of mRNA in the administration group was calculated, so as to confirm whether the active compound affected the PPAR pathway, thereby further regulating lipid metabolism.
# [1] = tested on: diabetes mellitus+NASH model mice; test: Diabetes mellitus + non-alcoholic steatohepatitis (NASH) model; format: in vivo, mouse; conditions: for AHDL (high density lipoprotein) / ALDL (low density lipoprotein) / ALT / AST / BUN / CHOL (total cholesterol) / CK / CREA / TGL (triglycerides) / activity of lowering triglycerides (in words) / total cholesterol content in blood (in words): 50 mg/kg intragastric once a day for 28 days; for blood glucose level: 50 mg/kg intragastric once a day for 28 days (FIG. 9); for body fat content (MRI): 50 mg/kg intragastric once a day for 28 days (FIG. 10); for fat content in liver (Oil red O and H.E. staining): 50 mg/kg intragastric once a day for 28 days (FIGS. 12A-12B); for blood glucose level 14 days after the administration: 50 mg/kg intragastric once a day, day 14; for weight ratio of epididymal white fat: 50 mg/kg intragastric once a day for 28 days (FIG. 11)
# Procedure: Animal model: Each db/db mouse was injected subcutaneously with 40% CCl4 solution (Beijing Tongguang Fine Chemical Co., Ltd.) at a dose of 0.72 mg/100 g for 4 consecutive weeks to obtain a diabetes mellitus+NASH model. In the experiment, 35 of the above model mice were used, and animals with blood glucose of about 7 to 13 mmol/L were selected. According to their blood glucose levels, they were randomly divided into a blank control group, a model group, a BJMU group (gemfibrozil), a BJMU-1 group, a BJMU-2 Group and a BJMU-3 group, 7 animals in each group (the model group and each administration group were modeled according to the animal modeling method). Intragastric administration was adopted with an administration volume of 10 ml/kg. The blank control group and the model group were administrated with 1% Tween 80-saline; the BJMU group was administrated with a dose of 50 mg/kg, the BJMU-1 group was administrated with a dose of 50 mg/kg, the BJMU-2 group was administrated with a dose of 50 mg/kg, and the BJMU-3 group was administrated with a dose of 50 mg/kg. The administration was performed once a day for 28 consecutive days. From the day of oral administration, the physiological changes of the animals were observed every day. Blood glucose was measured every week, and blood glucose difference (Δ) was calculated by the following formula: blood glucose difference (Δ)=the blood glucose of the day—the initial blood glucose (the initial blood glucose difference was zero). After the administration, the animals were sacrificed, and the internal organs and epididymal fat were taken out for experiments. White epididymal fat was taken from each group of mice and weighed. According to the corresponding body weight, the weight ratio of white fat was calculated. Before the mice were sacrificed, 3 mice in each group were randomly selected and subjected to magnetic resonance imaging (MRI) (EchoMRI-700 body fat tester) so as to measure body fat content. For mice in each experimental group, blood was collected and serum was separated, and liver was taken for wet-weight measurement after necropsy; liver tissue was taken and fixed for pathological examination, H.E. staining and oil red O staining (Wuhan Zishan Biotechnology Co., Ltd.) were performed, and mouse liver lesions were observed under light microscope; routine examination of blood was performed by Animal Laboratory Department, Health Science Center of Peking University to measure the following indexes: white blood cell count (WBC), red blood cell count (RBC), lymphocyte count (LY), platelet (PLT) and so on; biochemical laboratory examination of blood was performed by Laboratory Medicine, Third Hospital, Peking University to measure the following indexes: triglycerides (TG), total cholesterol (T-CHO), high-density lipoprotein cholesterol (HDL-C), low-density lipoprotein cholesterol (LDL-C) and so on.
# ACOX1 = ACOX1 mRNA expression by real-time quantitative PCR in HepG2; format: cell-based, human; conditions: 1 μM, 6 hours, HepG2 (FIG. 5D)
# From the text: as §1, §2
# [2] = tested on: RAW264.7 mouse macrophages; test: Determination of NO generation induced by LPS; format: cell-based; conditions: 10 μM, 1 μg/mL LPS, 24 hours, RAW264.7 (FIG. 2)
# Procedure: The results are expressed as the multiple of the NO content in the cell culture supernatant of the administration group (10 μM) as compared with that in the cell culture supernatant of the control group (DMSO group), in which compared with the control group, *P<0.05, **P<0.01, ***P<0.001.
# NO is a reactive nitrogen species (RNS) and an important gas signal molecule. Macrophages could convert arginine into NO which participated in the body's inflammatory response. Therefore, determination of inhibitory activity of a drug on NO generation was one of the classic methods to evaluate drug's anti-inflammatory ability. RAW264.7 cells at exponential growth phase were inoculated into a 96-well plate at 1×10^4 cells/200 μL. well of medium. After adherence, the medium was discarded, and the cells were subjected to drug treatments. Normal group (serum-free medium), LPS model group (serum-free medium containing 1 μg/mL LPS), LPS+drug group (serum-free medium containing 1 μg/mL LPS, 10 μM gemfibrozil or the compound of the present application) were established, and 3 repeated wells were set for each group. After 24 hours incubation in incubator, cell supernatant of each well was collected and assay was performed according to the instructions of NO determination kit (Nanjing Jiancheng). The absorbance value of each well at wavelength of 540 nm was read and NO content was calculated.
Structure (SMILES),PGC1α mRNA expression (PGC1α),AHDL (high density lipoprotein) [1] [mmol/L],ALDL (low density lipoprotein) [1] [mmol/L],ALT [1] [U/L],AST [1] [U/L],BUN [1] [mmol/L],CHOL (total cholesterol) [1] [mmol/L],CK [1] [U/L],CREA [1] [µmol/L],TGL (triglycerides) [1] [mmol/L],activity of lowering triglycerides (in words) [1],blood glucose level [1],body fat content (MRI) [1],fat content in liver (Oil red O and H.E. staining) [1],blood glucose level 14 days after the administration [1],ACOX1 mRNA expression (ACOX1),NO generation induced by LPS [2],total cholesterol content in blood (in words) [1],weight ratio of epididymal white fat [1]
"Cc1cc(OCCCC(C)(C)C(=O)O)c(C)cc1Cl [BJMU-1, 5-(4-chloro-2,5-dimethylphenoxy)-2,2-dimethylpentanoic acid]",significantly induced PGC1α mRNA expression,2.34 ± 0.24,0.49 ± 0.06,114.86 ± 51.2,216.43 ± 60.6,9.89 ± 1.31,4.85 ± 0.7,1297.71 ± 814.48,19 ± 1.63,1.77 ± 0.65,had better activity of lowering triglycerides than gemfibrozil,could significantly reduce the blood glucose level,could significantly reduce the body fat content,could significantly reduce the fat content in liver,almost returned to the normal level,significantly induced ACOX1 mRNA expression,could inhibit NO generation,–,–
"Cc1cc(OCCCC(C)(C)C(=O)O)c(C)cc1Br [BJMU-2, 5-(4-bromo-2,5-dimethylphenoxy)-2,2-dimethylpentanoic acid]",significantly induced PGC1α mRNA expression,2.15 ± 0.29,0.48 ± 0.05,115.57 ± 39.12,233.67 ± 47.75,11.95 ± 1.81,3.78 ± 0.45,1406.33 ± 458.77,22.5 ± 7.12,1.73 ± 0.41,had better activity of lowering triglycerides than gemfibrozil,could significantly reduce the blood glucose level,could significantly reduce the body fat content,could significantly reduce the fat content in liver,almost returned to the normal level,significantly induced ACOX1 mRNA expression,could inhibit NO generation,could reduce total cholesterol content in blood,could significantly reduce the weight ratio of mouse epididymal fat
"Cc1cc(OCCCC(C)(C)C(=O)O)c(C)cc1F [BJMU-3, 5-(4-fluoro-2,5-dimethylphenoxy)-2,2-dimethylpentanoic acid]",significantly induced PGC1α mRNA expression,2.27 ± 0.84,0.52 ± 0.14,125.14 ± 51.99,257 ± 83,9.29 ± 3.44,4.42 ± 1.77,1674.71 ± 864.05,21.33 ± 10.52,1.86 ± 0.99,had better activity of lowering triglycerides than gemfibrozil,could significantly reduce the blood glucose level,could significantly reduce the body fat content,could significantly reduce the fat content in liver,almost returned to the normal level,significantly induced ACOX1 mRNA expression,could inhibit NO generation,–,could significantly reduce the weight ratio of mouse epididymal fat
"Cc1ccc(C)c(OCCCC(C)(C)C(=O)O)c1 [gemfibrozil, Gemfibrozil, reference compound]",could not activate PGC1α expression,2.68 ± 0.31,0.7 ± 0.16,134.14 ± 38.71,235.14 ± 41.06,11.96 ± 2.26,5.37 ± 0.88,1222.14 ± 392.96,22.29 ± 3.45,1.86 ± 0.66,–,did not exhibit significant hypoglycemic activity,did not show an activity of reducing body fat,did not exhibit the aforementioned activity,–,could not activate ACOX1 expression,did not have an activity of inhibiting NO generation,did not show an activity of lowering total cholesterol in blood,–
